Results published in patent US20070043003A1, “Novel compounds for the prophylaxis and treatment of inflammatory bowel diseases” (Hikma Pharmaceuticals Co., Ltd., priority 2005, published 2007).
“And” between values parts separate entries of the source, which are not always exact repeats. Equal values may be shown once.

Legend:
[1] = test system: TNB (trinitrobenzenesulfonic acid)-induced ulcerative colitis; assay: Rats with TNB-induced ulcerative colitis, macroscopic and microscopic examination of intestine, colon and cecum; format: in vivo, rat; set-up: key to Overall degree of inflammation / Mucosal inflammation and ulceration / Submucosal inflammation / Full thickness inflammation: − = No inflammation (normal); ± = Very minimal mucosal inflammation; + = Mild; +2 = Moderate; +3 = Severe; settings: for Full thickness inflammation / Mucosal inflammation and ulceration / Overall degree of inflammation / Submucosal inflammation: one rat per row; for activity against intestinal bowel disease: compared to the known compound 5ASA
Method: Rats with TNB (trinitrobenzenesulfonic acid)-induced ulcerative colitis were used as an animal model. 28 rats were randomly grouped (A, B, C1, C2, D1 and D2). Group A is used as positive control and each of the other three groups received a predetermined dose of compounds under testing (see Table 3). Animals were fasted for one night before taking the TNB solution. All animals received a solution (0.25 ml) of TNB in methylcelullose solution (50% methylcellulose in absolute ethanol) containing 20 mg of TNB. The TNB solution was administered by intracolonic administration using a syringe and rubber canula. The canula was inserted into the lumen of the colon via the anus. The cannula was advanced so that its tip was 8 cm from the anus. […] Group A took 0.5 ml of the suspension containing 2.5 mg of methylcellulose solution twice daily. • 2. […] The treatments were given for eight days, and on the 9th day the animals were sacrificed and opened along their abdomen for evaluation. The animals were subjected to the following testing • 1. Physical testing, as looking at the weight, […], general health, etc. • 2. Looking at the intestine before opening, colouration, thickness, etc. 3. Dissecting the intestine the colon and the cecum and examining them macroscopically and microscopically.

[2] = upon oral administration; cited from earlier work
[3] = Group D-1: 12 mg compound 5 orally twice daily for eight days
[4] = Group D-2: 18 mg compound 5 orally twice daily for eight days
[5] = Group C-1: 18 mg compound 9 orally twice daily for eight days
[6] = Group C-2: 28 mg compound 9 orally twice daily for eight days
[7] = Group B: 5 mg 5ASA orally twice daily for eight days

Nc1ccc(-c2nc3cc(CC(=O)O)ccc3o2)cc1 [compound 5, 4-aminophenylbenzoxazole-5-acetic acid]
Full thickness inflammation [1, 3]: + (3×) and − (2×) | Mucosal inflammation and ulceration [1, 3]: + (4×) and − | Overall degree of inflammation [1, 3]: +1 (3×) and ± and − | Submucosal inflammation [1, 3]: + (3×) and − (2×) | Full thickness inflammation [1, 4]: − | Mucosal inflammation and ulceration [1, 4]: + | Overall degree of inflammation [1, 4]: +1 | Submucosal inflammation [1, 4]: + | activity against intestinal bowel disease [1]: significantly higher activity

O=C(O)c1cc(N=Nc2ccc(S(=O)(=O)Nc3ccccn3)cc2)ccc1O [SS, 2-Hydroxy-5-[4-(2-pyridylsulfamoyl)phenylazo]benzoic acid]
fraction of a given dose absorbed from the small intestine [2]: about one-third

O=C(O)Cc1ccc2oc(-c3ccc(N=Nc4ccc(O)c(C(=O)O)c4)cc3)nc2c1 [compound 9, 2-Hydroxy-5-[4-(benzoxazol-2-yl-5-acetic acid)phenylazo]benzoic acid]
Full thickness inflammation [1, 5]: − | Mucosal inflammation and ulceration [1, 5]: − and + (5×) | Overall degree of inflammation [1, 5]: − and ± (3×) and +1 (2×) | Submucosal inflammation [1, 5]: − (3×) and ± and + (2×) | Full thickness inflammation [1, 6]: − | Mucosal inflammation and ulceration [1, 6]: + | Overall degree of inflammation [1, 6]: ± (2×) and +1 | Submucosal inflammation [1, 6]: ± (2×) and + | activity against intestinal bowel disease [1]: significantly higher activity

Nc1ccc(O)c(C(=O)O)c1 [5ASA, 5-aminosalicylic acid, reference compound]
Full thickness inflammation [1, 7]: + | Mucosal inflammation and ulceration [1, 7]: + | Overall degree of inflammation [1, 7]: +2 (4×) and +3 and +1 | Submucosal inflammation [1, 7]: +
